Laboratory results taken from paper PMC8147293, “Library of Selenocyanate and Diselenide Derivatives as In Vivo Antichagasic Compounds Targeting Trypanosoma cruzi Mitochondrion” (Pharmaceuticals, 2021).
Like-named read-outs stand apart in the source and are kept apart here.

Assays:
[1] = tested on: epimastigotes of T. cruzi Arequipa strain; test: Screening against extracellular epimastigotes (resazurin); type: cell-based, Trypanosoma cruzi; details: for Selectivity Index Epimast.: IC50 Vero cells/IC50 epimastigotes; for IC50: Trypanosoma cruzi
Method: Trypanocidal activity against epimastigotes of T. cruzi Arequipa strain (MHOM/Pe/2011/Arequipa, discrete typing unit V) was tested as previously described. In short, 5 × 10^5 epimastigotes·mL^−1 were treated by adding the tested compounds at a concentration range from 100 to 0.2 µM in 96-well microplates (200 µL·well^−1) for 48 h. Subsequently, resazurin sodium salt (Sigma-Aldrich) was added to be incubated for further 24 h. Finally, the absorbance was measured, and the trypanocidal activity was expressed as the IC50 (inhibitory concentration 50) using GraphPad Prism 6 software. Each compound concentration was tested in triplicate in three independent experiments.

Mammalian Vero cells = test: Cytotoxicity test on Vero cells (resazurin); type: cell-based; details: Chlorocebus sabaeus; for CC50: 72 h, Table 1, Vero cells, 48 h + 24 h resazurin, read-out: Toxicity IC50 Vero Cell; for IC50: Table S1, cultured Vero cells, read-out: Toxicity IC50 Vero cell
Method: Mammalian Vero cells (EACC No. 84113001), cultured as previously reported, were used to determine the cytotoxicity of the tested compounds [56]. In short, 1.25 × 10^4 Vero cells·mL^−1 were treated by adding the compounds at a concentration range from 400 to 1 µM in 96-well microplates (200 µL·well^−1) at 37 °C for 48 h. Subsequently, resazurin sodium salt (Sigma-Aldrich) was added to be incubated for further 24 h. Finally, cell viability was determined following the same procedure as described to assess the trypanocidal activity in the epimastigotes. Each compound concentration was tested in triplicate in three independent experiments.

[2] = tested on: Trypanosoma cruzi intracellular amastigotes; test: Screening against intracellular amastigotes in Vero cells (Giemsa counting); type: cell-based; details: for Selectivity Index Amast.: IC50 Vero cells/IC50 amastigotes; for IC50: Trypanosoma cruzi, Table 1, intracellular amastigotes in Vero cells, 72 h, read-out: Activity IC50 Amast.
Method: (§1) Trypanocidal activity against amastigotes was determined according to the literature reported previously. […]. […] Each compound concentration was tested in triplicate in four separate determinations.

[3] = tested on: Trypanosoma cruzi bloodstream trypomastigotes (BTs); test: Screening against bloodstream trypomastigotes (resazurin); type: cell-based; details: for Selectivity Index Trypomast.: IC50 Vero cells/IC50 trypomastigotes; for IC50: Trypanosoma cruzi, Table 1, bloodstream trypomastigotes, 24 h treatment + 4 h resazurin, read-out: Activity IC50 Trypomast.
Method: 2 × 10^6 Bloodstream trypomastigotes (BTs), obtained by cardiac puncture from infected BALB/c mice as previously described, were treated by adding the tested compounds at a concentration range from 50 to 0.1 µM in 96-well microplates (200 µL·well^−1) at 37 °C. After 24 h of treatment, resazurin sodium salt (Sigma-Aldrich) was added to be incubated for further 4 h. Finally, trypanocidal activity was determined following the same procedure as described to assess the trypanocidal activity in the epimastigotes. Each compound concentration was tested in triplicate in three independent experiments.

[4] = tested on: Trypanosoma cruzi amastigotes in Vero cells; test: Infection rate and amastigotes per Vero cell over 10 days; type: cell-based; details: IC25 concentrations, measured at 2 days intervals for 10 days
Method: Before going ahead on in vivo trials, the in vitro infection rate and the average number of amastigotes per Vero cell were also measured at 2 days intervals for 10 days after treating the infected cultures with BZN and potential candidates (8, 10, and 15) (Figure 1) at ICH25 concentrations resulting from amastigotes screening. […]. Fast-acting drugs are urgently needed, and this feature is an additional advantage since they can eliminate the parasite in a few doses.
as §1
Figure 1 (A) Percentage of infected Vero cells and (B) number of amastigotes of Trypanosoma cruzi per Vero cell exposed to benznidazole (BZN), 8, 10 and 15. Values constitute means of three separate determinations ± standard deviation. * Significant differences between untreated and treated parasites for α = 0.05. dpi, days post-infection.

Trypanosoma cruzi [5] = test: Parasitemia monitoring in infected BALB/c mice, acute Chagas disease; type: in vivo; details: oral 20 mg/kg per day for 5 days from 9th dpi, versus untreated
Method: (§2) Infection was carried out by intraperitoneal inoculation of 5 × 10^5 BTs of T. cruzi per mouse in 0.2 mL PBS [56]. The mice were treated by oral route (~200 µL) once daily for 5 consecutive days. The treatment for mice treated in the acute and chronic phases began when the infection was confirmed (9th day post-infection (dpi)) and was established that the animals had entered the chronic phase (100th dpi), respectively.
(§3) The mice were divided into six groups (n = 3 per group): 0, negative control group (uninfected and untreated mice); I, positive control group (infected and untreated mice); II, BZN group (mice infected and treated with BZN); III, 8 group (mice infected and treated with 8); IV, 10 group (mice infected and treated with 10); V, 15 group (mice infected and treated with 15). The tested compounds and BZN were prepared at 2 mg·mL^−1 in an aqueous suspension vehicle containing 5% (v/v) DMSO and 0.5% (w/v) hydroxypropyl methylcellulose, as previously reported. Therefore, doses of 20 mg·kg^−1 per day were administered for 5 consecutive days, and vehicle only was administered in the negative and positive control groups.
(§4) All in vivo assays for the evaluation of compounds in the acute and chronic CD (Scheme 1)—monitoring of parasitemia, immunosuppression, PCR [59, 60], ELISA [56], and clinical analysis [56]—were performed as previously described. PCR was based on the Spliced Leader (SL) intergenic region sequence of T. cruzi (for detailed description, see literature reported previously).

Trypanosoma cruzi [6] = test: Parasitemia reactivation after immunosuppression in BALB/c mice; type: in vivo; details: acute and chronic CD, 20 mg/kg per day for 5 days
Method: Secondly, the experimental cure was determined using a double checking widely used in in vivo trypanocidal trials. This double checking—based on immunosuppression and PCR (Figure 2B,C, respectively)—was performed to evaluate the treatment effectiveness and the disease extent in both acute and chronic CD at the end of the in vivo timeline. The mice whose parasitemia and PCR remain negative after immunosuppression are considered cured.
Immunosuppression enhances the reactivation of any residual infection, which is proportional to the parasite survival rate.
as §2, §3, §4

Trypanosoma cruzi [7] = test: Anti-T. cruzi IgG (ELISA) and splenomegaly in treated BALB/c mice; type: in vivo; details: treated BALB/c mice versus untreated; excluding IgG levels of chronic CD
Method: Otherwise, the immune status of the mice was evaluated—through the titer of total anti-T. cruzi IgG and the splenomegaly (Figure S1)—since it is a characteristic linked to the parasite load and the effectiveness ascribed to the potential candidates. […].
as §4
Figure S1. A) Anti-Trypanosoma cruzi immunoglobulin G levels, expressed in absorbance at 492 nm, at different days post-infection (dpi) for each group of mice treated during the acute and chronic phases of Chagas disease: control (untreated), benznidazole (BZN), 8, 10 and 15. Blank and uninfected mice are also […]
included. […] Values are the means of three mice ± standard deviation. (IS) immunosuppression. * Significant differences between untreated and treated mice for α =
0.05. B) Weight percentage of spleens in the chronic Chagas disease for each group of mice treated during the acute and chronic phases of the disease: control (untreated), benznidazole (BZN), 8, 10 and 15. Values are the means of three mice ± standard deviation. In brackets: reduction of splenomegaly in comparison to […]
(1 picture or pasted object on this page, not shown here)

[8] = tested on: epimastigotes of T. cruzi Arequipa; test: 1H NMR analysis of excreted metabolites; type: cell-based, Trypanosoma cruzi; details: IC25 concentrations, 72 h
Method: 5 × 10^5 epimastigotes·mL^−1 of T. cruzi Arequipa were treated by adding the tested compounds at IC25 concentrations in 25 cm^2 cell culture flasks at 28 °C for 72 h. Untreated controls were also included. Cultures were then centrifuged and filtered, and the metabolites of the supernatants were analyzed using a ^1H NMR spectrometer (VARIAN DIRECT DRIVE 500 MHz […]) with AutoX probe, D2O as solvent and 2,2-dimethyl-2-silapentane-5-sulphonate as the reference signal. Chemical shifts were expressed in parts per million (ppm), and analyses were conducted as previously reported.

Trypanosoma cruzi Fe-SOD = test: SOD enzymatic inhibition, Fe-SOD; type: biochemical; details: 100 to 0.1 µM
Method: (§5) Excreted Fe-SOD protein—obtained and quantified as previously described [64]—and commercial Cu/Zn-SOD from human erythrocytes (Sigma-Aldrich) were exposed to the tested compounds at a concentration range from 100 to 0.1 µM to determine in vitro activities using the method previously described.

[9] = target: T1, human erythrocytes CuZn-SOD (Homo sapiens, UniProt P00441); test: SOD enzymatic inhibition, CuZn-SOD; type: biochemical; details: 100 to 0.1 µM, read-out: CuZn-SOD IC50 (in brackets)
T1 construct: commercial Cu/Zn-SOD from human erythrocytes (Sigma-Aldrich); purchased Sigma-Aldrich; host or cells: human erythrocytes
Method: as §5

[10] = Table 1, T. cruzi epimastigotes, 48 h treatment + 24 h resazurin, read-out: Activity IC50 Epimast.
[11] = Table S1, cultured epimastigote form of T. cruzi, read-out: Activity IC50
[12] = 72 h, Table 1, T. cruzi epimastigotes, 48 h treatment + 24 h resazurin, read-out: Activity IC50 Epimast.

T1 sequence (P00441 whole entry): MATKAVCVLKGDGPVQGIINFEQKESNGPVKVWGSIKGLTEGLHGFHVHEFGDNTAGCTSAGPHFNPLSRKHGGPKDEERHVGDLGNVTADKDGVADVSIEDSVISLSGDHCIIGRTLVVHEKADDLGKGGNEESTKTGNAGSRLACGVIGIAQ

Structure (SMILES)	Selectivity Index Epimast. [1]	IC50 [1, 11] [µM]	CC50 (Mammalian Vero cells) [µM]	Selectivity Index Amast. [2]	IC50 [2] [µM]	Selectivity Index Trypomast. [3]	IC50 (Mammalian Vero cells) [µM]	further results
N#C[Se]Cc1cccc(C#N)c1 [compound 21]	22	≤ 10	21.7 ± 1.8	27	0.8 ± 0.1	24	–	IC50 [1, 10]: 1 ± 0.2 µM; IC50 [3]: 0.9 ± 0.1 µM
Cc1ccc(S(=O)(=O)Nc2ccc([Se][Se]c3ccc(NS(=O)(=O)c4ccc(C)cc4)cc3)cc2)cc1 [compound 43]	13	≤ 10	66.9 ± 6.2	16	4.2 ± 0.7	18	–	IC50 [1, 10]: 5.1 ± 0.6 µM; IC50 [3]: 3.7 ± 0.2 µM
N#C[Se]Cc1ccccc1[N+](=O)[O-] [compound 15]	20	≤ 10	17.9 ± 1	36	0.5	14	–	IC50 [1, 10]: 0.9 ± 0.1 µM; IC50 [3]: 1.3 ± 0.3 µM; infection rate and average number of amastigotes per Vero cell [4]: decrease in both infection rate and number of amastigotes per cell in a time-dependent manner; parasitemia levels (counting BTs) during the acute CD (Trypanosoma cruzi [5]): non-significant differences; reactivation of infection after immunosuppression (in words) (Trypanosoma cruzi [6]): non-significant differences; total anti-T. cruzi IgG levels and splenomegaly (Trypanosoma cruzi [7]): Slight or non-significant reductions; excretion of metabolites versus untreated parasites (in words) [8]: strikingly increased; SOD inhibitory activity (in words) (Trypanosoma cruzi Fe-SOD): no inhibitory activity; IC50 [9]: > 100 µM
Cn1ccnc1S(=O)(=O)Nc1ccc([Se][Se]c2ccc(NS(=O)(=O)c3nccn3C)cc2)cc1 [compound 47]	12	≤ 10	44.7 ± 3	15	3 ± 0.4	12	–	IC50 [1, 12]: 3.6 ± 0.3 µM; IC50 ([3]; 28 h): 3.8 ± 0.4 µM
O=S(=O)(Nc1ccc([Se][Se]c2ccc(NS(=O)(=O)c3ccc(-c4ccccc4)cc3)cc2)cc1)c1ccc(-c2ccccc2)cc1 [compound 46]	18	≤ 10	48.6 ± 3.5	21	2.3 ± 0.1	24	–	IC50 [1, 12]: 2.7 ± 0.8 µM; IC50 ([3]; 28 h): 2 ± 0.3 µM
Cc1ccc(C[Se]C#N)cc1 [compound 11]	20	≤ 10	61.3 ± 3.7	20	3.1 ± 0.1	14	–	IC50 [1, 10]: 3 ± 0.4 µM; IC50 [3]: 4.5 ± 0.6 µM
N#Cc1ccccc1C[Se][Se]Cc1ccccc1C#N [compound 20]	13	≤ 10	16.4 ± 0.5	16	1 ± 0.1	18	–	IC50 [1, 12]: 1.3 ± 0.2 µM; IC50 ([3]; 28 h): 0.9 µM
c1ccc(C[Se][Se]Cc2ccccc2)cc1 [compound 4]	–	35.4 ± 3.6	–	–	–	–	26.8 ± 1.3	–
O=S(=O)(Nc1ccc([Se][Se]c2ccc(NS(=O)(=O)c3ccccc3)cc2)cc1)c1ccccc1 [compound 41]	–	6.8 ± 0.7	–	–	–	–	26.5 ± 1.4	–
N#C[Se]Cc1ccc(Br)cc1 [compound 1]	–	39.1 ± 2.5	–	–	–	–	68.4 ± 3.7	–
O=S(=O)(Nc1ccc([Se][Se]c2ccc(NS(=O)(=O)c3cccc4cccnc34)cc2)cc1)c1cccc2cccnc12 [compound 45]	–	1.7 ± 0.3	–	–	–	–	14.3 ± 1.1	–
N#C[Se]Cc1ccc(C(F)(F)F)cc1 [compound 7]	–	34.1 ± 2.6	–	–	–	–	50.5 ± 3.8	–
N#C[Se]Cc1ccccc1C#N [compound 19]	–	29.1 ± 3	–	–	–	–	18.5 ± 0.7	–
c1cnc2c(C[Se][Se]Cc3cccc4cccnc34)cccc2c1 [compound 26]	–	6.7 ± 0.4	–	–	–	–	19.6 ± 1	–
O=S(=O)(Nc1ccc([Se][Se]c2ccc(NS(=O)(=O)c3ccc(Cl)cc3)cc2)cc1)c1ccc(Cl)cc1 [compound 34]	–	41.3 ± 2.1	–	–	–	–	29.8 ± 3.4	–
CSc1ccc(C[Se]C#N)cc1 [compound 9]	–	11.3 ± 0.7	–	–	–	–	67.3 ± 4.9	–
